# Measurements from article PMC5931096, “A Phase I study of the novel immunomodulatory agent PG545 (pixatimod) in subjects with advanced solid tumours” (British Journal of Cancer, 2018).
# Assays:
# [1] = test system: advanced solid malignancies; experiment: Clinical activity by RECIST 1.1; assay type: in vivo, human
# Protocol: All patients were assessed for safety, those who received at least one dose of PG545 were evaluated for efficacy. Safety assessment included the incidence of all adverse events (AEs), irrespective of relationship to study drug, according to the National Cancer Institute Common Terminology Criteria for Adverse Events, version 4.0, and the incidence of patients experiencing dose modifications and/or premature discontinuation of study drug. Dose-limiting toxicities (DLTs) used to determine the MTD were defined as occurring during Cycle 1 of treatment only and related to PG545 according to investigator assessment. If no DLT occurred in the first three subjects, the next three-subject cohort was enrolled at the next highest available dose level. If a single DLT occurred, an additional three subjects was enrolled at the same dose level. Dose escalation continued until two subjects of the cohort experienced a DLT; this was defined as the toxic dose level. The dose-escalation phase was completed and MTD determined by reducing the dose to the next lowest dose compared to the toxic dose and expanding this cohort to at least 6 subjects.
# Subjects with measurable disease were assessed by computed tomography at baseline and every 8 weeks according to Response Evaluation Criteria in Solid Tumours (RECIST), version 1.1 criteria.
# [2] = test system: tumour-associated macrophages (TAM); set-up: method as in PMID 24970482, PMID 23696215; settings: preclinical cancer models; cited from earlier work
compound,measurement,setting,value
CC(C)CCC[C@@H](C)[C@H]1CC[C@H]2[C@@H]3CC[C@H]4C[C@@H](O[C@@H]5O[C@H](COS(=O)(=O)O)[C@@H](O[C@H]6O[C@H](COS(=O)(=O)O)[C@@H](O[C@H]7O[C@H](COS(=O)(=O)O)[C@@H](O[C@H]8O[C@H](COS(=O)(=O)O)[C@@H](OS(=O)(=O)O)[C@H](OS(=O)(=O)O)[C@H]8OS(=O)(=O)O)[C@H](OS(=O)(=O)O)[C@H]7OS(=O)(=O)O)[C@H](OS(=O)(=O)O)[C@H]6OS(=O)(=O)O)[C@H](OS(=O)(=O)O)[C@H]5OS(=O)(=O)O)CC[C@]4(C)[C@H]3CC[C@]12C [PG545],Estimated median duration of SD,[1]; 95% confidence interval from 39 days to 62 days,57 days
same,Disease control rate,"[1]; evaluable subjects (six of sixteen), at 8 weeks",38%
same,Best response,"[1]; human, in vivo",stable disease up to 24 weeks
same,Objective responses,[1]; monotherapy,No objective responses were reported
same,Patients with stable disease (SD) at 8 weeks,"[1]; of sixteen patients assessed, RECIST 1.1",six
same,Inhibition of tumour-associated macrophages (TAM),[2],potently inhibit
